Reference: PMC11825364, “Development of supramolecular anticoagulants with on-demand reversibility” (Nature Biotechnology, 2024)
One block for each molecule: values may come before it.

Key:
[1] = molecular target: Biotin-PNA (8-mer) ACAACTGC; assay: SPR of PNA hybridization; type: binding; details: 25 °C
Description: SPR experiments were performed on a Biacore T200 instrument (GE Healthcare) at 25 °C in PBS-P+ buffer (10× stock; Cytiva Life Sciences, 28995084). Biotin-PNA (8-mer) was immobilized on a Streptavidin Series S sensor chip (Cytiva Life Sciences, 29104992). Before immobilization, the two channels were conditioned with 1 M NaCl in 50 mM NaOH. After stabilization, the compound (solution in PBS-P+) was flowed over one of the flow cells of the sensor chip at a concentration of 50 nM at a flow rate of 10 μl min^−1 with a response unit target of 500. Biotin-PNA (8-mer) reached a response unit value of 513.7. The system (not including the flow cells) was washed with 50% isopropanol in 1 M NaCl and 50 mM NaOH after each ligand injection. Kinetic measurements consisted of injections (association, 400 s; dissociation, 450 s; flow rate, 30 μl min^−1) of decreasing concentrations of PNA (4-, 6- and 8-mer; twofold cascade dilutions from the starting concentration). The chip was regenerated between cycles by one injection of regeneration solution (50 mM NaOH) for 10 s at a flow rate of 20 μl min^−1, followed by a 10-s stabilization period. Binding was measured as resonance units over time after blank subtraction, and the data were interpreted using Biacore T200 software (version 3.2). All measurements were performed in duplicate. The KD values were calculated based on steady-state affinity (1:1 binding).

[2] = molecular target: T1, human α-thrombin (Homo sapiens, UniProt P00734); assay: Michaelis Menten determination of KM of the fluorogenic substrate; type: biochemical; details: without inhibitor, variation of [substrate]; R2 0.98
T1 construct: human α-thrombin (Haematologic Technologies, HCT0020); purchased Haematologic Technologies HCT0020
Description: Inhibition assays were performed using 0.2 nM enzyme, 20 μM substrate and increasing concentrations of inhibitor. The concentration of each inhibitor variant was determined using the absorbance of the PNA at 260 nm, as measured by NanoDrop. All reactions were performed at 37 °C in 50 mM Tris-HCl (pH 8.0), 50 mM NaCl and 1 mg ml^–1 bovine serum albumin in black 96-well microtiter plates (Thermo Fisher Scientific, 267342). Reaction progress was monitored by excitation at 339 nm and emission at 439 nm using a SpectraMax or Tecan Spark Plate Reader. Dose–response curves were used to determine the half-maximal inhibitory concentrations (IC50) using Prism 8.0 (GraphPad Software). For each inhibitor, the reactions were performed in triplicate, together with control reactions in the absence of enzyme. The initial velocity was calculated from the slope of the first 10 min of the assay. The curves were normalized to the well without inhibitor, where the initial velocity was set to 100% activity.
MALDI-TOF; m/z found: 1202.95.
5. Thrombin Inhibition Assay
Supplementary Figure 2: Thrombin Fluorogenic Assay
The assay was performed as described in the Online Methods section.
To convert IC50 values to Ki values, KM was determined: The assay described above was performed
without inhibitor but with variation of [substrate]. The Michaelis Menten plot was obtained, and KM […]

[3] = tested on: C57BL/6J mice; assay: Needle injury thrombosis model; type: in vivo, mouse; details: A1–E1 5 mg per kg i.v. bolus twice 30 min apart, argatroban 2 mg per kg bolus + 12 mg per kg infusion over 60 min
Description: For intravital mouse studies, male mice aged between 5 and 8 weeks old (15–20 g) were used.
A clinical preparation of argatroban (Argatra/Exembol) was purchased from Mitsubishi Tanabe Pharma (Germany) and prepared in sterile saline with 25% (vol/vol) propylene glycol. Synthesized PNA inhibitors and PNA inhibitors + antidote solutions were prepared in sterile saline at a concentration of 2 mg ml^–1. C57BL/6J male mice (15–25 g) were anesthetized with ketamine (150 mg per kg (body weight)) and xylazine (15 mg per kg (body weight)), supplemented with oxygen and subjected to intravital needle injury, as previously described[42]. […] Following each injury, platelet thrombus formation and fibrin generation were monitored over a 15-min period using a confocal intravital microscopy platform (Nikon A1R-Si with an Apo LWD, ×40/1.15-NA water immersion objective; sequential excitation: 488-, 561- and 638-nm lasers; emission: 525/50-, 595/50- and 700/75-nm filters) and NIS Elements Advanced Research acquisition software. […]
The signal obtained from DyLight 649-conjugated anti-GP1bβ for each xyz stack in a time series was thresholded to create a mask. The total signal (arbitrary units) from Alexa Fluor 546-conjugated anti-fibrin within this mask (that is, the fibrin signal within the thrombus) for each time point was then quantified using NIS Elements software (Nikon). […]

- Kd [1]: 4.14 µM
Molecule: CAGT

- Km [2]: 2.42 µM
- Vmax [2]: 435.8
Molecule: phe-Pro-Arg-Coumarin [(S)-1-(D-phenylalanyl)-N-((S)-5-guanidino-1-((4-methyl-2-oxo-2H-chromen-7-yl)amino)-1-oxopentan-2-yl)pyrrolidine-2-carboxamide, substrate of the thrombin assay]

Molecule: CC1CNc2c(cccc2S(=O)(=O)N[C@@H](CCCNC(=N)N)C(=O)N2CC[C@@H](C)C[C@@H]2C(=O)O)C1 (stereo partly shown) [argatroban]
- fibrin formation and thrombus size [3]: significant decreases in fibrin formation and thrombus size
